Consider 33 molecules from ChEMBL document CHEMBL4699471, “Design and synthesis of purine connected piperazine derivatives as novel inhibitors of Mycobacterium tuberculosis” (2020).

In brackets after ≈: the same amount, converted by molar mass.

The assay deals with Mycobacterium tuberculosis. Briefly: Antimycobacterial activity against Mycobacterium tuberculosis H37Rv assessed as inhibition of bacterial growth by MABA assay. Format: functional. A general note: Alamar Blue is a resazurin reagent that responds to reducing activity.
Turning to `CC#CCn1c(N2CCN(C(=O)c3nccnc3Cl)CC2)nc2c1c(=O)n(Cc1ccc(F)c(F)c1)c(=O)n2C`, the MIC is 44 µM (≈ 25 µg/mL).

With `CC#CCn1c(N2CCN(C(=S)Nc3c(F)cccc3Cl)CC2)nc2c1c(=O)n(Cc1ccc(F)c(F)c1)c(=O)n2C`, the minimal inhibitory concentration (MIC) came out at 40.6 µM (≈ 25 µg/mL). For the molecule `CC#CCn1c(N2CCN(C(=O)c3cccc4ccccc34)CC2)nc2c1c(=O)n(Cc1ccc(F)c(F)c1)c(=O)n2C`, the MIC came to 53.3 µM (≈ 31 µg/mL). For `CC#CCn1c(N2CCN(C(=O)C3Cc4ccccc4N3)CC2)nc2c1c(=O)n(Cc1ccc(F)c(F)c1)c(=O)n2C` (stereo not drawn), the MIC was found to be 43.6 µM (≈ 25 µg/mL). With `CC#CCn1c(N2CCN(C(=O)c3csc(Br)n3)CC2)nc2c1c(=O)n(Cc1ccc(F)c(F)c1)c(=O)n2C`, the MIC amounted to 40.5 µM (≈ 25.1 µg/mL). As for `CC#CCn1c(N2CCN(C(=O)c3cccc(F)c3)CC2)nc2c1c(=O)n(Cc1ccc(F)c(F)c1)c(=O)n2C`, the MIC was 45.4 µM (≈ 25 µg/mL). As to `CC#CCn1c(N2CCN(C(=S)Nc3ccc(Cl)cc3)CC2)nc2c1c(=O)n(Cc1ccc(F)c(F)c1)c(=O)n2C`, the MIC was 34.5 µM (≈ 20.6 µg/mL). Consider `CC#CCn1c(N2CCN(C(=O)Nc3ccccc3Cl)CC2)nc2c1c(=O)n(Cc1ccc(F)c(F)c1)c(=O)n2C`, for which the minimum inhibitory concentration (MIC) is 49.2 µM (≈ 28.7 µg/mL). With `CC#CCn1c(N2CCN(C(=S)Nc3ccccc3Br)CC2)nc2c1c(=O)n(Cc1ccc(F)c(F)c1)c(=O)n2C`, the MIC amounted to 39 µM (≈ 25.1 µg/mL).

Turning to `CC#CCn1c(N2CCN(S(=O)(=O)c3ccccc3)CC2)nc2c1c(=O)n(Cc1ccc(F)c(F)c1)c(=O)n2C`, the MIC amounted to 44 µM (≈ 25 µg/mL). For `CC#CCn1c(N2CCN(C(=O)Nc3ccc(C(F)(F)F)cc3)CC2)nc2c1c(=O)n(Cc1ccc(F)c(F)c1)c(=O)n2C`, the MIC was 5.08 µM (≈ 3.13 µg/mL).

`CC#CCn1c(N2CCN(C(=O)C3CCC3)CC2)nc2c1c(=O)n(Cc1ccc(F)c(F)c1)c(=O)n2C`: the MIC stood at 49 µM (≈ 25 µg/mL). `CC#CCn1c(N2CCN(C(=O)Nc3cccc(C(F)(F)F)c3)CC2)nc2c1c(=O)n(Cc1ccc(F)c(F)c1)c(=O)n2C`: the MIC was found to be 20.3 µM (≈ 12.5 µg/mL).

For the molecule `CC#CCn1c(N2CCN(C(=O)c3cccnc3C(F)(F)F)CC2)nc2c1c(=O)n(Cc1ccc(F)c(F)c1)c(=O)n2C`, the MIC is 41.6 µM (≈ 25 µg/mL). As for `CC#CCn1c(N2CCN(C(=S)Nc3cccc(Cl)c3)CC2)nc2c1c(=O)n(Cc1ccc(F)c(F)c1)c(=O)n2C`, the MIC came to 7.17 µM (≈ 4.29 µg/mL). To `CC#CCn1c(N2CCN(C(=O)c3c(F)cc(OC)cc3F)CC2)nc2c1c(=O)n(Cc1ccc(F)c(F)c1)c(=O)n2C` belongs 41.8 µM (≈ 25 µg/mL); to `CC#CCn1c(N2CCN(C(=O)C3CCC(C(F)(F)F)CC3)CC2)nc2c1c(=O)n(Cc1ccc(F)c(F)c1)c(=O)n2C` (stereo not drawn), 16.4 µM (≈ 9.97 µg/mL); to `CC#CCn1c(N2CCN(C(=O)Nc3ccc(SC)cc3)CC2)nc2c1c(=O)n(Cc1ccc(F)c(F)c1)c(=O)n2C`, 10.3 µM (≈ 6.13 µg/mL). To `CC#CCn1c(N2CCN(C(=O)C34CC5CC(CC(C5)C3)C4)CC2)nc2c1c(=O)n(Cc1ccc(F)c(F)c1)c(=O)n2C` belongs 43.4 µM (≈ 25.6 µg/mL); to `CC#CCn1c(N2CCN(C(=O)c3ccc(C(F)(F)F)cc3)CC2)nc2c1c(=O)n(Cc1ccc(F)c(F)c1)c(=O)n2C`, 51.5 µM (≈ 30.9 µg/mL).

With `CC#CCn1c(N2CCN(C(=O)C3CCCCN3C(=O)OC(C)(C)C)CC2)nc2c1c(=O)n(Cc1ccc(F)c(F)c1)c(=O)n2C` (stereo not drawn), the MIC was determined as 39.1 µM (≈ 25 µg/mL). `CC#CCn1c(N2CCN(C(=O)c3ccccc3C(F)(F)F)CC2)nc2c1c(=O)n(Cc1ccc(F)c(F)c1)c(=O)n2C`: the MIC amounted to 41.6 µM (≈ 25 µg/mL).

Take `CC#CCn1c(N2CCN(C(=O)Nc3ccc(Cl)cc3)CC2)nc2c1c(=O)n(Cc1ccc(F)c(F)c1)c(=O)n2C`: the minimal inhibitory concentration (MIC) turned out to be 41 µM (≈ 23.9 µg/mL). Consider `CC#CCn1c(N2CCN(S(=O)(=O)c3cccc(Cl)c3)CC2)nc2c1c(=O)n(Cc1ccc(F)c(F)c1)c(=O)n2C`, for which the MIC was 12.5 µM (≈ 7.51 µg/mL). Consider `CC#CCn1c(N2CCN(C(=O)Cc3ccc(F)cc3)CC2)nc2c1c(=O)n(Cc1ccc(F)c(F)c1)c(=O)n2C`, for which the MIC worked out at 44.3 µM (≈ 25 µg/mL). On to `CC#CCn1c(N2CCN(C(=O)COc3ccccc3)CC2)nc2c1c(=O)n(Cc1ccc(F)c(F)c1)c(=O)n2C`, for which the MIC came to 44.5 µM (≈ 25 µg/mL). For `CC#CCn1c(N2CCN(C(=S)Nc3ccccc3Cl)CC2)nc2c1c(=O)n(Cc1ccc(F)c(F)c1)c(=O)n2C`, the MIC amounted to 41.9 µM (≈ 25 µg/mL). For `C=CCNC(=O)N1CCN(c2nc3c(c(=O)n(Cc4ccc(F)c(F)c4)c(=O)n3C)n2CC#CC)CC1`, the MIC is 52.4 µM (≈ 26.8 µg/mL). Next, `CC#CCn1c(N2CCN(C(=O)c3sccc3Cl)CC2)nc2c1c(=O)n(Cc1ccc(F)c(F)c1)c(=O)n2C`: 43.7 µM (≈ 25 µg/mL). As to `CC#CCn1c(N2CCN(C(=O)CCc3ccc(F)cc3)CC2)nc2c1c(=O)n(Cc1ccc(F)c(F)c1)c(=O)n2C`, the MIC worked out at 43.2 µM (≈ 25 µg/mL). `O=C(O)c1cn(C2CC2)c2cc(N3CCNCC3)c(F)cc2c1=O` [CIPROFLOXACIN]: the MIC amounted to 0.94 µM (≈ 0.311 µg/mL). As to `CC[C@@H](CO)NCCN[C@@H](CC)CO` [ETHAMBUTOL], the MIC came to 7.63 µM (≈ 1.56 µg/mL).

For `NNC(=O)c1ccncc1` [ISONIAZID], the MIC was 0.66 µM (≈ 0.0905 µg/mL).

Usually MIC stands for the smallest concentration in the dilution series that meets the test's criterion for growth inhibition.
